Measured values as given in patent publication US20230089247A1, “NOVEL COMPOUNDS SUITABLE FOR THE TREATMENT OF DYSLIPIDEMIA” (ZYDUS LIFESCIENCES LIMITED, priority 2019, published 2023).

Molecular target: PCSK9 (Homo sapiens, UniProt Q8NBP7)
Test: BODIPY-LDL uptake assay in HepG2 cells
Type: cell-based
Details: 5 μg/ml PCSK9, BODIPY-LDL
How it was run: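 Compounds pre-incubated 60 min with 5 μg/ml PCSK9 (0.2% DMSO), then added to HepG2 cells for 16 h; 1 μg/ml BODIPY-LDL added in serum-free medium for 5 h. Fluorescence (Ex 485/Em 520 nm) normalized to protein; PCSK9-only wells = 0%, no-PCSK9 wells = 100% uptake, giving percent increase in LDL uptake.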

Sequence of PCSK9 (Q8NBP7 153-692): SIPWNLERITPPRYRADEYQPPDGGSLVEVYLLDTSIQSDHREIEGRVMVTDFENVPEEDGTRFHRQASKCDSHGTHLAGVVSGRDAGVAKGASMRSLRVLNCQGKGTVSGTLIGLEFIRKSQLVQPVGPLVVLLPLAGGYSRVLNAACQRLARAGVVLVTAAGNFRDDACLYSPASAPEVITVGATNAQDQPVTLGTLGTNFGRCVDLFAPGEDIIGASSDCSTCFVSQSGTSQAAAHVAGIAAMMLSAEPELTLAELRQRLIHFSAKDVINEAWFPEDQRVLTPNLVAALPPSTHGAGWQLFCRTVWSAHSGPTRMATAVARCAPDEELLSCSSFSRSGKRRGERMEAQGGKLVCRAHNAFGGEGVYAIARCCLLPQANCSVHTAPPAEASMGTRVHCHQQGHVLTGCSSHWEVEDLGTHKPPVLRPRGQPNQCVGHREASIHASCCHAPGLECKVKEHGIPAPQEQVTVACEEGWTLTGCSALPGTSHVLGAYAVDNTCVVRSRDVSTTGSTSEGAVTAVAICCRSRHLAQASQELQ

Row | % increase in LDL Uptake (1 μM test compound) | % increase in LDL Uptake (10 μM test compound) | % increase in LDL Uptake (30 μM test compound) | Compound
1 | 0% | 26% | 85% | COC1(c2ccc(C(=O)N3CCN(c4ccc(C(F)(F)F)cn4)CC3)cc2)COC1 [Example 218, (4-(3-methoxyoxetan-3-yl)phenyl)(4-(5-(trifluoromethyl)pyridin-2-yl)piperazin-1-yl)methanone]
2 | 0% | 20% | 122% | O=C(c1ccc(C2(O)COC2)cc1)N1CCC(c2cc(F)cc(C(F)(F)F)c2)CC1 [Example 14, (4-(3-fluoro-5-(trifluoromethyl)phenyl)piperidin-1-yl)(4-(3-hydroxyoxetan-3-yl)phenyl)methanone]
3 | 16% | 0% | 36% | COC1(c2ccc(C(=O)N3CC4=C(C3)CN(c3ccc(C(F)(F)F)cc3)C4)cc2)COC1 [Example 202, (4-(3-methoxyoxetan-3-yl)phenyl)(5-(4-(trifluoromethyl)phenyl)-3,4,5,6-tetrahydropyrrolo[3,4-c]pyrrol-2(1H)-yl)methanone]
4 | 0% | 51% | 47% | CCOC1(c2cccc(C(=O)N3CC4CN(c5ccc(C(F)(F)F)cc5)CC4C3)c2)COC1 (stereo not drawn) [Example 178, (3-(3-ethoxyoxetan-3-yl)phenyl)(5-(4-(trifluoromethyl)phenyl)hexahydropyrrolo[3,4-c]pyrrol-2(1H)-yl)methanone]
5 | 0% | 142% | 234% | O=C(c1cccc(C2(O)COC2)c1)N1CCCC(c2ccc(C(F)(F)F)cc2)C1 (stereo not drawn) [Example 48, (3-(3-hydroxyoxetan-3-yl)phenyl)(3-(4-(trifluoromethyl)phenyl)piperidin-1-yl)methanone]
6 | 11% | 45% | 74% | O=C(c1cncc(C2(O)COC2)c1)N1CCC(c2ccc(C(F)(F)F)cc2)CC1 [Example 49, (5-(3-hydroxyoxetan-3-yl)pyridin-3-yl)(4-(4-(trifluoromethyl)phenyl)piperidin-1-yl)methanone]
7 | −19% | 20% | 74% | Cc1ccc(C2=CC3CN(C(=O)c4ccc(C5(O)COC5)cc4)CC3C2)cc1 (stereo not drawn) [Example 130, (4-(3-hydroxyoxetan-3-yl)phenyl)(5-(p-tolyl)-3,3a,6,6a-tetrahydrocyclopenta[c]pyrrol-2(1H)-yl)methanone]
8 | 27% | 0% | 0% | O=C(c1ccc(C2(O)COC2)cc1)N1CCc2cc(-c3ccc(C(F)(F)F)cc3)ccc21 [Example 107, (4-(3-hydroxyoxetan-3-yl)phenyl)(5-(4-(trifluoromethyl)phenyl)indolin-1-yl)methanone]
9 | 4% | 31% | 25% | O=C(c1ccc(C2(O)COC2)cc1)N1CCC(c2ccc(C(F)(F)F)cc2)C1 (stereo not drawn) [Example 102, (4-(3-hydroxyoxetan-3-yl)phenyl)(3-(4-(trifluoromethyl)phenyl)pyrrolidin-1-yl)methanone]
10 | 0% | 28% | 66% | COC1(c2cccc(C(=O)N3CCN(c4ccc(C(F)(F)F)cn4)CC3)c2)COC1 [Example 221, (3-(3-methoxyoxetan-3-yl)phenyl)(4-(5-(trifluoromethyl)pyridin-2-yl)piperazin-1-yl)methanone]
11 | 0% | 12% | 68% | O=C(c1cccc(C2(O)COC2)c1)N1CCc2scc(-c3ccc(C(F)(F)F)cc3)c2C1 [Example 176, (3-(3-hydroxyoxetan-3-yl)phenyl)(3-(4-(trifluoromethyl)phenyl)-6,7-dihydrothieno[3,2-c]pyridin-5(4H)-yl)methanone]
12 | 0% | 116% | 19% | CCSCCOC1(c2ccc(C(=O)N3CCC(c4ccc(C(F)(F)F)cc4)CC3)cc2)COC1 [Example 189, (4-(3-(2-(ethylthio)ethoxy)oxetan-3-yl)phenyl)(4-(4-(trifluoromethyl)phenyl)piperidin-1-yl)methanone]
13 | 0% | 30% | 9% | COC1(c2ccc(C(=O)N3CC4CN(c5ccc(C(F)(F)F)cc5)CC4C3)cc2)CSC1 (stereo not drawn) [Example 149, (4-(3-methoxythietan-3-yl)phenyl)(5-(4-(trifluoromethyl)phenyl)hexahydropyrrolo[3,4-c]pyrrol-2(1H)-yl)methanone]
14 | 0% | 8% | 39% | COc1ccc(C2CCN(C(=O)c3ccc(C4(O)COC4)cc3)CC2)cc1F [Example 28, (4-(3-fluoro-4-methoxyphenyl)piperidin-1-yl)(4-(3-hydroxyoxetan-3-yl)phenyl)methanone]
15 | 0% | 0% | 16% | CCOC1(c2ccc(C(=O)N3CCC(c4ccc(C(F)(F)F)cc4)CC3)cc2)CCN(C(=O)OC(C)(C)C)CC1 [Example 161, tert-butyl 4-ethoxy-4-(4-(4-(4-(trifluoromethyl)phenyl)piperidine-1-carbonyl)phenyl) piperidine-1-carboxylate]
16 | 17% | 0% | 0% | O=C(c1ccc(C2(O)COC2)cc1)N1CCc2nc(-c3ccc(C(F)(F)F)cc3)sc2C1 [Example 175, (4-(3-hydroxyoxetan-3-yl)phenyl)(2-(4-(trifluoromethyl)phenyl)-6,7-dihydrothiazolo[5,4-c]pyridin-5(4H)-yl)methanone]
17 | 28% | 47% | 34% | O=C(c1ccc(C2(OCC3CC3)COC2)cc1)N1CCC(c2ccc(C(F)(F)F)cc2)CC1 [Example 46, (4-(3-(cyclopropylmethoxy)oxetan-3-yl)phenyl)(4-(4-(trifluoromethyl)phenyl)piperidin-1-yl)methanone]
18 | 13% | 32% | 37% | O=C(c1ccc(C2(O)CS(=O)(=O)C2)cc1)N1CC2CN(c3ccc(C(F)(F)F)cc3)CC2C1 (stereo not drawn) [Example 61, (4-(3-hydroxy-1,1-dioxidothietan-3-yl)phenyl)(5-(4-(trifluoromethyl)phenyl)hexahydropyrrolo[3,4-c]pyrrol-2(1H)-yl)methanone]
19 | 0% | 0% | 28% | O=C(c1ccc(C2(O)CCNCC2)cc1)N1CCC(c2ccc(C(F)(F)F)cc2)CC1 [Example 141, (4-(4-hydroxypiperidin-4-yl)phenyl)(4-(4-(trifluoromethyl)phenyl)piperidin-1-yl)methanone]
20 | 17% | 73% | 31% | O=C(c1ccc(C2(O)COC2)cc1)N1CCC2(CCN(c3ccc(C(F)(F)F)cc3)CC2)C1 [Example 186, (4-(3-hydroxyoxetan-3-yl)phenyl)(8-(4-(trifluoromethyl)phenyl)-2,8-diazaspiro[4.5]decan-2-yl)methanone]
21 | −2% | −8% | 64% | COC1(c2ccc(C(=O)N3CC4CC(OC)(c5ccc(C(F)(F)F)cc5)CC4C3)cc2)COC1 (stereo not drawn) [Example 92, (5-methoxy-5-(4-(trifluoromethyl)phenyl)hexahydrocyclopenta[c]pyrrol-2(1H)-yl)(4-(3-methoxyoxetan-3-yl)phenyl)methanone]
22 | 0% | 107% | 0% | O=C(c1cccc(C2(O)COC2)c1)N1CC2CN(c3ccc(C(F)(F)F)cn3)CC2C1 (stereo not drawn) [Example 210, (3-(3-hydroxyoxetan-3-yl)phenyl)(5-(5-(trifluoromethyl)pyridin-2-yl)hexahydropyrrolo[3,4-c]pyrrol-2(1H)-yl)methanone]
23 | 0% | 29% | 109% | COC1(c2ccc(C(=O)N3CCCN(c4ccc(C(F)(F)F)cc4)CC3)cc2)COC1 [Example 185, (4-(3-methoxyoxetan-3-yl)phenyl)(4-(4-(trifluoromethyl)phenyl)-1,4-diazepan-1-yl)methanone]
24 | 0% | 0% | 31% | O=C(c1ccc(C2(O)CCNC2)cc1)N1CCC(c2ccc(C(F)(F)F)cc2)CC1 (stereo not drawn) [Example 152, (4-(3-hydroxypyrrolidin-3-yl)phenyl)(4-(4-(trifluoromethyl)phenyl)piperidin-1-yl)methanone]
25 | 0% | 2% | 51% | COC1(c2ccc(C(=O)N3CCC(c4ccc(C(F)F)cc4)CC3)cc2)COC1 [Example 68, (4-(4-(difluoromethyl)phenyl)piperidin-1-yl)(4-(3-methoxyoxetan-3-yl)phenyl)methanone]

Row | Compound | % increase in LDL Uptake (1 μM test compound) | % increase in LDL Uptake (10 μM test compound) | % increase in LDL Uptake (30 μM test compound)
26 | CC(C)COC1(c2ccc(C(=O)N3CC4CN(c5ccc(C(F)(F)F)cc5)CC4C3)cc2)COC1 (stereo not drawn) [Example 135, (4-(3-isobutoxyoxetan-3-yl)phenyl)(5-(4-(trifluoromethyl)phenyl)hexahydropyrrolo[3,4-c]pyrrol-2(1H)-yl)methanone] | 5% | 17% | 47%
27 | CC(C)COC1(c2ccc(C(=O)N3CCC(c4ccc(C(F)(F)F)cc4)CC3)cc2)COC1 [Example 45, (4-(3-isobutoxyoxetan-3-yl)phenyl)(4-(4-(trifluoromethyl)phenyl)piperidin-1-yl)methanone] | 19% | 9% | 4%
